Molecules are shown by their SMILES. pIC50: −log10 of the molar value. Active and inactive are the calls of the source. The rule behind the calls is not given here.

The assay deals with L. donovani-infected THP-1 macrophages, intracellular amastigote imaging. The experiment in a line: intracellular L. donovani amastigote inhibition, imaging, THP-1 host macrophages, host toxicity (AID 1159564).
Setting [1] is: measured here: THP-1 host cell toxicity.
Setting [2] is: measured here: amastigotes per macrophage.

Usually pIC50 stands for the negative decadic logarithm of the IC50, by convention in mol/L. With `COc1ccc2nccc(NC(=O)C3(OC)CCN(CC(O)c4ccc5c(c4)OCCO5)CC3)c2n1` (stereo unspecified), the negative logarithm of the IC50 (pIC50) was 4.70. This compound also showed a pIC50 under setting [1] of 4.60. Besides, the pIC50 under setting [2] was 5.20.
The IC50 is the midpoint of a concentration-inhibition curve. For the compound `O=c1[nH]c(C=Cc2cccc(OCCOc3ccccc3)c2)nc(O)c1[N+](=O)[O-]`, the IC50 was > 50 µM (inactive). For the same compound, the pIC50 under setting [1] was less than 4.30. Besides, the pIC50 under setting [2] was less than 4.30.
`CCOc1ccc(OCC(=O)N2c3ccccc3CC2C(=O)NC)cc1` (stereo unspecified): the IC50 was > 50 µM (inactive). For the same compound, the pIC50 under setting [1] is less than 4.30. This compound also showed a pIC50 under setting [2] of less than 4.30.
For the compound `FC(F)(F)c1cc(C2CCCN(Cc3c[nH]c4ccccc34)C2)nc2ncnn12` (stereo unspecified), the IC50 is > 50 µM (inactive). The compound also showed a pIC50 under setting [1] of 4.80. The pIC50 under setting [2] was less than 4.30.
Consider `COc1ccc(-c2nc3ccncc3c(=O)n2CCOc2ccccc2)cc1`, for which the IC50 is > 50 µM (inactive). Also, under setting [1], the pIC50 is less than 4.30. The same compound showed a pIC50 under setting [2] of less than 4.30.
On to `COc1ccccc1-c1c(C)[nH]c2nc(N)nc(C)c12`, for which the pIC50 is 4.60. This compound gave a pIC50 under setting [1] of less than 4.30. Besides, the pIC50 under setting [2] is 4.80.
With `COc1ccc(C)cc1-c1csc(NC(=O)C(C)n2ccnc2)n1` (stereo unspecified), the IC50 was > 50 µM (inactive). Moreover, the pIC50 under setting [1] is less than 4.30. Besides, the pIC50 under setting [2] is less than 4.30.
For `COc1ccc(-c2cnc(NC(=O)c3cc(-c4ccccn4)n[nH]3)n2C)cc1`, the pIC50 was 6.00. This compound also showed a pIC50 under setting [1] of less than 4.30. The pIC50 under setting [2] was 6.10.
`CN(Cc1cccnc1)Cc1ccc(N2CCN(C(=O)C3(c4ccc(Cl)cc4)CC3)CC2)nc1`: the IC50 is > 50 µM (inactive). The pIC50 under setting [1] was 5.00. Besides, the pIC50 under setting [2] was less than 4.30.
As for `O=C(NCCc1ccn(-c2ccccc2)n1)C1CCCCC1`, the IC50 was > 50 µM (inactive). The compound also showed a pIC50 under setting [1] of less than 4.30. The compound further gave a pIC50 under setting [2] of less than 4.30.
For the compound `c1cc(-c2ncc(-c3ccn[nH]3)s2)ccn1`, the IC50 was > 50 µM (inactive). Under setting [1], this compound had a pIC50 of less than 4.30. Under setting [2], the pIC50 is 5.00.
Regarding `CCN(CC)c1ncc(C(=O)c2ccc([N+](=O)[O-])o2)s1`, the pIC50 is 5.00. Further, the pIC50 under setting [1] was 5.20. Moreover, under setting [2], the pIC50 is 5.00.
As for `O=C(CCc1ccc(-c2ccccc2)o1)N1CCN(c2ccc(O)cc2)CC1`, the pIC50 is 5.40. Besides, the pIC50 under setting [1] is less than 4.30. The compound further showed a pIC50 under setting [2] of 5.89.
As to `COc1ccc(C(C)N(C)c2ncc3c(N)nc(N)nc3n2)cc1F` (stereo unspecified), the pIC50 was 4.80. Also, under setting [1], the pIC50 is less than 4.30. This compound gave a pIC50 under setting [2] of 4.89.
For `CCN(CC)S(=O)(=O)c1ccc(C)c(NC(=O)c2cc(Cl)c3c(c2)OCO3)c1`, the IC50 was > 50 µM (inactive). In addition, the pIC50 under setting [1] was less than 4.30. For the same compound, the pIC50 under setting [2] is less than 4.30.
On to `O=C(CN1CCC2(O)CCCCC2C1c1ccc2c(c1)OCO2)Nc1ccc(Cl)cc1Cl` (stereo unspecified), for which the pIC50 is 5.49. Further, the negative logarithm of the IC50 (pIC50) under setting [1] is less than 4.30. The pIC50 under setting [2] is 5.89.
`O=C(NCCCn1cnc2ccccc21)c1ccc(NC(=O)c2ccco2)cc1`: the IC50 was > 50 µM (inactive). Further, the pIC50 under setting [1] was less than 4.30. Moreover, under setting [2], the pIC50 was 4.89.
With `CC1CCCCN1C(=O)NCCc1coc(-c2ccc(F)cc2)n1` (stereo unspecified), the IC50 is > 50 µM (inactive). For the same compound, the pIC50 under setting [1] was less than 4.30. This compound showed a pIC50 under setting [2] of less than 4.30.
Regarding `CCc1c(C)nc(-n2nc(C)cc2NC(=O)COc2ccccc2F)[nH]c1=O`, the pIC50 is 5.10. For the same compound, under setting [1], the pIC50 was 5.40. Under setting [2], the pIC50 is 5.30.
As for `CC(C)C[C@H](NC(=O)c1ccc(-c2ccccc2)o1)C(=O)NC1(C#N)CC1`, the IC50 is > 50 µM (inactive). In addition, under setting [1], the pIC50 is less than 4.30. Moreover, under setting [2], the pIC50 is 4.80.
As to `c1ccc(-c2nc(NCc3ccco3)c3ccccc3n2)nc1`, the pIC50 is 5.60. The compound further showed a pIC50 under setting [1] of 4.49. This compound showed a pIC50 under setting [2] of 5.60.
As for `CCC(=O)Nc1ccc(C(=O)Nc2ccccc2-c2ccccc2)cc1`, the pIC50 is 4.70. The pIC50 under setting [1] is 4.80. Besides, under setting [2], the pIC50 is 4.60.
In the case of `CC(C)Oc1ccc(C(=O)Nc2ccc(N3CCOCC3)c(Cl)c2)cc1`, the IC50 is > 50 µM (inactive). This compound also showed a negative logarithm of the IC50 (pIC50) under setting [1] of less than 4.30. In addition, the pIC50 under setting [2] was 5.49.
On to `NCC(Cc1ccccc1)NC(=O)c1cnc(-c2c[nH]c3ncccc23)s1` (stereo unspecified), for which the pIC50 was 4.80. Besides, the pIC50 under setting [1] is 5.20. The compound also showed a pIC50 under setting [2] of 4.89.
In the case of `Cc1nn(-c2nc(N)nc(-c3ccccn3)n2)c(N)c1-c1ccccc1`, the pIC50 is 5.49. Besides, under setting [1], the pIC50 is 4.70. Under setting [2], this compound gave a pIC50 of 5.70.
For `Cc1[nH]n2c(=O)c3c(nc2c1-c1ccc(F)cc1)CCCC3`, the IC50 is > 50 µM (inactive). The pIC50 under setting [1] is less than 4.30. The same compound showed a negative-log IC50 (pIC50) under setting [2] of less than 4.30.
As to `O=C(NCc1ccc(-n2cccc2)cc1)c1nc(Cn2ccc([N+](=O)[O-])n2)no1`, the IC50 is > 50 µM (inactive). In addition, the pIC50 under setting [1] is less than 4.30. For the same compound, the pIC50 under setting [2] is less than 4.30.

Source of the values: PubChem BioAssay AID1159564 (GlaxoSmithKline (GSK), 2015).
